Data from PMC8286840, “Identifying SARS-CoV-2 antiviral compounds by screening for small molecule inhibitors of Nsp3 papain-like protease” (Biochemical Journal, 2021).
Structures can show the parent of a compound that is named as a salt. Where two headings read alike, the source gives them in different places.

Experiments:
[1] = molecular target: T1, SARS-CoV-2 PLpro (nsp3 1564–1878) (Severe acute respiratory syndrome coronavirus 2, UniProt P0DTD1); assay: biochemical; design: FRET-quenched peptide (Pro3) cleavage by PLpro, 10 min pre-incubation, slope over 20 min, normalised to no-compound control; details: low concentration screen, read-out: % of control remaining
[2] = molecular target: T1, SARS-CoV-2 PLpro (nsp3 1564–1878); assay: biochemical; design: FRET-quenched peptide (Pro3) cleavage by PLpro, 10 min pre-incubation, slope over 20 min, normalised to no-compound control; details: high concentration screen, read-out: % of control remaining

## O=c1c(-c2ccc(O)cc2)coc2cc(O[C@@H]3O[C@H](CO)[C@@H](O)[C@H](O)[C@H]3O)ccc12 [Daidzin]
[1]; Well no.=3249
  remaining activity at 1.25 µM: 103%
[2]; Well no.=3249
  remaining activity at 3.75 µM: 102%

## CCC(CC)CC1(C(=O)Nc2ccccc2SC(=O)C(C)C)CCCCC1 [Dalcetrapib (JTT-705, RO4607381)]
[1]; Well no.=8198
  remaining activity at 1.25 µM: 102%
[2]; Well no.=8198
  remaining activity at 3.75 µM: 102%

## CCN(CC)CCS(=O)(=O)[C@@H]1CCN2C(=O)c3coc(n3)CC(=O)C[C@H](O)/C=C(C)/C=C/CNC(=O)/C=C/[C@@H](C)[C@@H](C(C)C)OC(=O)[C@@H]12 [Dalfopristin]
[1]; Well no.=7876
  remaining activity at 1.25 µM: 95%
[2]; Well no.=7876
  remaining activity at 3.75 µM: 93.8%

## C#C[C@]1(O)CC[C@H]2[C@@H]3CCC4=Cc5oncc5C[C@]4(C)[C@H]3CC[C@@]21C [Danazol]
[1]; Well no.=584
  remaining activity at 1.25 µM: 94.6%
[1]; Well no.=1942
  remaining activity at 1.25 µM: 105%
[2]; Well no.=584
  remaining activity at 3.75 µM: 97%
[2]; Well no.=1942
  remaining activity at 3.75 µM: 106%

## NCC(=O)N1C[C@H](NC(=O)c2ccccc2)C[C@H]1C(=O)O [Danegaptide Hydrochloride]
[1]; Well no.=8026
  remaining activity at 1.25 µM: 98.8%
[2]; Well no.=8026
  remaining activity at 3.75 µM: 100%

## Cc1c(F)cccc1NC(=O)Nc1ccc(Cl)c(S(=O)(=O)[C@H]2CCCNC2)c1O [Danirixin]
[1]; Well no.=8173
  remaining activity at 1.25 µM: 111%
[2]; Well no.=8173
  remaining activity at 3.75 µM: 103%

## CN1C[C@@H]2C[C@H]1CN2c1cc2c(cc1F)c(=O)c(C(=O)O)cn2C1CC1 [Danofloxacin Mesylate]
[1]; Well no.=5322
  remaining activity at 1.25 µM: 87.6%
[2]; Well no.=5322
  remaining activity at 3.75 µM: 86.3%

## O=C1CN(/N=C/c2ccc(-c3ccc([N+](=O)[O-])cc3)o2)C(=O)N1 [Dantrolene sodium salt]
[1]; Well no.=5847
  remaining activity at 1.25 µM: 104%
[2]; Well no.=5847
  remaining activity at 3.75 µM: 101%

## O=C1CN(/N=C/c2ccc(-c3ccc([N+](=O)[O-])cc3)o2)C(=O)N1 [Dantrolene sodium]
[1]; Well no.=490
  remaining activity at 1.25 µM: 103%
[2]; Well no.=490
  remaining activity at 3.75 µM: 103%

## CO[C@@H](C(=O)N1Cc2[nH]nc(NC(=O)c3ccc(N4CCN(C)CC4)cc3)c2C1)c1ccccc1 [Danusertib (PHA-739358)]
[1]; Well no.=5045
  remaining activity at 1.25 µM: 103%
[2]; Well no.=5045
  remaining activity at 3.75 µM: 106%

## CCOc1ccc(Cc2cc([C@@H]3O[C@H](CO)[C@@H](O)[C@H](O)[C@H]3O)ccc2Cl)cc1 [Dapagliflozin]
[1]; Well no.=5291
  remaining activity at 1.25 µM: 93.4%
[2]; Well no.=5291
  remaining activity at 3.75 µM: 95.8%

## O=c1ccc2ccc(O)c(O)c2o1 [Daphnetin]
[1]; Well no.=405
  remaining activity at 1.25 µM: 102%
[2]; Well no.=405
  remaining activity at 3.75 µM: 101%

## Cc1ccccc1N1CCN(CCc2nnc3n2CCCC3)CC1 [Dapiprazole (hydrochloride)]
[1]; Well no.=6895
  remaining activity at 1.25 µM: 97.8%
[2]; Well no.=6895
  remaining activity at 3.75 µM: 100%

## Cc1cc(C)c(Nc2ccnc(Nc3ccc(C#N)cc3)n2)c(C)c1 [Dapivirine]
[1]; Well no.=5223
  remaining activity at 1.25 µM: 97.4%
[2]; Well no.=5223
  remaining activity at 3.75 µM: 98.3%

## CN(C)[C@@H](CCOc1cccc2ccccc12)c1ccccc1 [Dapoxetine hydrochloride]
[1]; Well no.=5853
  remaining activity at 1.25 µM: 94.2%
[2]; Well no.=5853
  remaining activity at 3.75 µM: 91%

## O=C(O)CNC(=O)C1C(=O)N(C2CCCCC2)C(=O)N(C2CCCCC2)C1=O [Daprodustat (GSK1278863)]
[1]; Well no.=8534
  remaining activity at 1.25 µM: 96.6%
[2]; Well no.=8534
  remaining activity at 3.75 µM: 99.9%

## CCCCCCCCCC(=O)N[C@@H](Cc1c[nH]c2ccccc12)C(=O)N[C@H](CC(N)=O)C(=O)N[C@@H](CC(=O)O)C(=O)N[C@@H]1C(=O)NCC(=O)N[C@@H](CCCN)C(=O)N[C@@H](CC(=O)O)C(=O)N[C@H](C)C(=O)N[C@@H](CC(=O)O)C(=O)NCC(=O)N[C@H](CO)C(=O)N[C@@H]([C@H](C)CC(=O)O)C(=O)N[C@@H](CC(=O)c2ccccc2N)C(=O)O[C@@H]1C [Daptomycin]
[1]; Well no.=5201
  remaining activity at 1.25 µM: 98.3%
[1]; Well no.=7796
  remaining activity at 1.25 µM: 104%
[2]; Well no.=5201
  remaining activity at 3.75 µM: 100%
[2]; Well no.=7796
  remaining activity at 3.75 µM: 105%

## CCN(CC)CCN(Cc1ccc(-c2ccc(C(F)(F)F)cc2)cc1)C(=O)Cn1c(SCc2ccc(F)cc2)nc(=O)c2c1CCC2 [Darapladib (SB-480848)]
[1]; Well no.=8576
  remaining activity at 1.25 µM: 101%
[2]; Well no.=8576
  remaining activity at 3.75 µM: 98.6%

## Cc1oc(-c2ccccc2)nc1CCC(=O)c1ccc(CC2SC(=O)NC2=O)cc1 (centres unmarked) [Darglitazone sodium salt]
[1]; Well no.=5504
  remaining activity at 1.25 µM: 90.6%
[2]; Well no.=5504
  remaining activity at 3.75 µM: 98%

## NC(=O)C(c1ccccc1)(c1ccccc1)[C@@H]1CCN(CCc2ccc3c(c2)CCO3)C1 [Darifenacin (hydrobromide)]
[1]; Well no.=7341
  remaining activity at 1.25 µM: 95.3%
[2]; Well no.=7341
  remaining activity at 3.75 µM: 89.4%

## NC(=O)C(c1ccccc1)(c1ccccc1)[C@@H]1CCN(CCc2ccc3c(c2)CCO3)C1 [Darifenacin HBr]
[1]; Well no.=5361
  remaining activity at 1.25 µM: 104%
[2]; Well no.=5361
  remaining activity at 3.75 µM: 97.1%

## CC(C)CN(C[C@@H](O)[C@H](Cc1ccccc1)NC(=O)O[C@H]1CO[C@H]2OCC[C@H]21)S(=O)(=O)c1ccc(N)cc1 [Darunavir (Ethanolate)]
[1]; Well no.=8504
  remaining activity at 1.25 µM: 98.9%
[2]; Well no.=8504
  remaining activity at 3.75 µM: 90.4%

## CC(C)CN(C[C@@H](O)[C@H](Cc1ccccc1)NC(=O)O[C@H]1CO[C@H]2OCC[C@H]21)S(=O)(=O)c1ccc(N)cc1 [Darunavir Ethanolate]
[1]; Well no.=8284
  remaining activity at 1.25 µM: 90.9%
[2]; Well no.=8284
  remaining activity at 3.75 µM: 94.1%

## CC(C)CN(C[C@@H](O)[C@H](Cc1ccccc1)NC(=O)O[C@H]1CO[C@H]2OCC[C@H]21)S(=O)(=O)c1ccc(N)cc1 [Darunavir]
[1]; Well no.=7318
  remaining activity at 1.25 µM: 108%
[2]; Well no.=7318
  remaining activity at 3.75 µM: 108%

## Cc1nc(Nc2ncc(C(=O)Nc3c(C)cccc3Cl)s2)cc(N2CCN(CCO)CC2)n1 [Dasatinib]
[1]; Well no.=2933
  remaining activity at 1.25 µM: 101%
[2]; Well no.=2933
  remaining activity at 3.75 µM: 97.3%

## O=c1c(O)c(-c2ccccc2O)oc2cc(O)cc(O)c12 [Datiscetin]
[1]; Well no.=3251
  remaining activity at 1.25 µM: 95.3%
[2]; Well no.=3251
  remaining activity at 3.75 µM: 96.6%

## COc1cccc2c1C(=O)c1c(O)c3c(c(O)c1C2=O)C[C@@](O)(C(C)=O)C[C@@H]3O[C@H]1C[C@H](N)[C@H](O)[C@H](C)O1 [Daunorubicin hydrochloride]
[1]; Well no.=728
  remaining activity at 1.25 µM: 94%
[2]; Well no.=728
  remaining activity at 3.75 µM: 94.8%

## COc1cccc2c1C(=O)c1c(O)c3c(c(O)c1C2=O)C[C@@](O)(C(C)=O)C[C@@H]3O[C@H]1C[C@H](N)[C@H](O)[C@H](C)O1 [Daunorubicin]
[1]; Well no.=1708
  remaining activity at 1.25 µM: 96.8%
[1]; Well no.=3221
  remaining activity at 1.25 µM: 103%
[2]; Well no.=1708
  remaining activity at 3.75 µM: 97.4%
[2]; Well no.=3221
  remaining activity at 3.75 µM: 104%

## N=C(N)N1CCc2ccccc2C1 [Debrisoquin sulfate]
[1]; Well no.=397
  remaining activity at 1.25 µM: 103%
[2]; Well no.=397
  remaining activity at 3.75 µM: 104%

## N=C(N)N1CCc2ccccc2C1 [Debrisoquin]
[1]; Well no.=1905
  remaining activity at 1.25 µM: 99.9%
[2]; Well no.=1905
  remaining activity at 3.75 µM: 99.9%

## C[N+](C)(C)CCCCCCCCCC[N+](C)(C)C [Decamethonium dibromide]
[1]; Well no.=683
  remaining activity at 1.25 µM: 94%
[2]; Well no.=683
  remaining activity at 3.75 µM: 95.4%
